{"source": "patent US7803836B2", "about": "“Aminophenylsulfonamide derivatives as HIV protease inhibitor” (priority 2005, dated 2010)", "test_in_all_cases": "microbe, parasite or virus in culture", "format_in_all_cases": "cell-based", "key": {"[1]": {"system": "clinically isolated HIV strain A (A-2-001)", "protocol": "(§1) The compounds were tested in a cellular assay using the MT4-LTR-EGFP cells for anti-viral activity. […] Because of the increasing emergence of drug resistant HIV strains, the present compounds were tested for their potency against clinically isolated HIV strains harboring several mutations. […] The viral strains A, B, C and D contain mutations as indicated below in Table 3.\n(§2) The cellular assay was performed according to the following procedure. HIV- or mock-infected MT4-LTR-EGFP cells were incubated for three days in the presence of various concentrations of the compounds according to the invention. Upon infection, the viral tat protein activates the GFP reporter. At the end of the incubation period, the GFP signal was measured. […] The inhibitory activity of the compound was monitored on the virus-infected cells and was expressed as EC50. These values represent the amount of the compound required to protect 50% of the cells from virus infection."}, "[2]": {"system": "clinically isolated HIV strain B (B-2-001)", "protocol": "as §1, §2"}, "[3]": {"system": "clinically isolated HIV strain C (C-2-001)", "protocol": "as §1, §2"}, "[4]": {"system": "clinically isolated HIV strain D (D-2-001)", "protocol": "as §1, §2"}, "[5]": {"system": "wild type laboratory HIV strain (WT IIIB-2-001)", "conditions": "Human immunodeficiency virus 1, IIIB, 72 h, read-out: Virus Strains WT-IIIB-2-001", "protocol": "as §1, §2"}, "[6]": {"conditions": "Human immunodeficiency virus 1, 72 h, read-out: Virus Strains A-2-001"}, "[7]": {"conditions": "Human immunodeficiency virus 1, 72 h, read-out: Virus Strains B-2-001"}, "[8]": {"conditions": "Human immunodeficiency virus 1, 72 h, read-out: Virus Strains C-2-001"}, "[9]": {"conditions": "Human immunodeficiency virus 1, 72 h, read-out: Virus Strains D-2-001"}}, "note": "Like-named read-outs stand apart in the source and are kept apart here.", "data": [{"smiles": "CC(C)CN1CC[C@H](Nc2cc(S(=O)(=O)N(CC(C)C)C[C@@H](O)[C@H](Cc3ccccc3)NC(=O)O[C@H]3CO[C@H]4OCC[C@H]43)ccc2N)C1", "note": "(stereo in doubt) [Compound 83, (3-{[4-amino-3-(1-isobutyl-pyrrolidin-3-ylamino)-benzenesulfonyl]-isobutyl-amino}-1-benzyl-2-hydroxy-propyl)-carbamic acid hexahydro-furo-[2,3-b]furan-3-yl ester]", "values": [{"measurement": "EC50", "setting": "[1]; [6]", "value": 0.00339, "unit": "µM"}, {"measurement": "EC50", "setting": "[2]; [7]", "value": 0.129, "unit": "µM"}, {"measurement": "EC50", "setting": "[3]; [8]", "value": 0.0166, "unit": "µM"}, {"measurement": "EC50", "setting": "[4]; [9]", "value": 0.0759, "unit": "µM"}, {"measurement": "EC50", "setting": "[5]", "value": 0.0263, "unit": "µM"}]}, {"smiles": "CC(C)CN(C[C@@H](O)[C@H](Cc1ccccc1)NC(=O)O[C@H]1CO[C@H]2OCC[C@H]21)S(=O)(=O)c1ccc(N)cc1", "note": "[TMC 114, (3R,3aS,6aR)-hexahydrofuro[2,3-b]furan-3-yl N-[(1S,2R)-1-benzyl-2-hydroxy-3-(N 1-isobutylsulfanilamido)propyl]carbamate, reference compound]", "values": [{"measurement": "EC50", "setting": "[1]; Human immunodeficiency virus 1, read-out: pEC50-A (converted)", "value": 0.00794, "unit": "µM"}, {"measurement": "EC50", "setting": "[2]; Human immunodeficiency virus 1, read-out: pEC50-B (converted)", "value": 0.851, "unit": "µM"}, {"measurement": "EC50", "setting": "[3]; Human immunodeficiency virus 1, read-out: pEC50-C (converted)", "value": 0.0891, "unit": "µM"}, {"measurement": "EC50", "setting": "[4]; Human immunodeficiency virus 1, read-out: pEC50-D (converted)", "value": 4.79, "unit": "µM"}]}, {"smiles": "CC(C)CN(C[C@@H](O)[C@H](Cc1ccccc1)NC(=O)O[C@H]1CO[C@H]2OCC[C@H]21)S(=O)(=O)c1ccc(N)c(N[C@H]2CCN(C3CCCC3)C2)c1", "note": "(stereo in doubt) [Compound 79, (3-{[4-amino-3-(1-cyclopentyl-pyrrolidin-3-ylamino)-benzene-sulfonyl]-isobutyl-amino}-1-benzyl-2-hydroxy-propyl)-carbamic acid hexahydrofuro[2,3-b]furan-3-yl ester]", "values": [{"measurement": "EC50", "setting": "[1]; [6]", "value": 0.0209, "unit": "µM"}, {"measurement": "EC50", "setting": "[2]; [7]", "value": 0.275, "unit": "µM"}, {"measurement": "EC50", "setting": "[3]; [8]", "value": 0.0501, "unit": "µM"}, {"measurement": "EC50", "setting": "[4]; [9]", "value": 0.0389, "unit": "µM"}, {"measurement": "EC50", "setting": "[5]", "value": 0.0661, "unit": "µM"}]}]}
